Patent publication US6596863B2, “Medical composition containing nitroetheneamine Derivative or salt there of as active constituent” (Ishihara Sangyo Kaisha, Ltd., priority 1998, dated 2003)
Like-named read-outs stand apart in the source and are kept apart here.

Key:
[1] = molecular target: T1, human MMP-9 (gelatinase B) (Homo sapiens, UniProt P14780); test: Inhibition activity against human MMP-9 (gelatinase B), fluorescent peptide substrate; assay type: biochemical
T1 construct: endogenous in cells; host or cells: HT1080 human fibrosarcoma cells (ATCC CCL-121), PMA-stimulated; enzyme purified from the culture supernatant
Method: Human MMP-9 (gelatinase B) was purified by the following method from a culture supernatant of HT1080 cells (human fibrosarcoma).
2.5×10^6 HT1080 cells (ATCC CCL-121, purchased from Dainippon Seiyaku) were inoculated to a tissue culture dish (Code No. 3020-100, manufactured by Iwaki Glass Co., Ltd.) having a diameter of 10 cm and containing 10 ml of Dulbecco's Modified Eagle Medium (DME, No. D-5648, manufactured by Sigma Co.) containing 10% fetal bovine serum (FBS: REHATUIN™, Code No. 1020-90, manufactured by Intergen Co.) and cultured for 72 hours at 37° C. in an atmosphere comprising 5% of CO2 and 95% of air (Carbon Dioxide Incubator LNA-122D Model, manufactured by Tabai Co.). Then, the medium was changed to 10 ml of a DME culture medium containing no FBS, and phorbol 12-myristate 13-acetate (PMA, code No. 163-114851, manufactured by Wako Pure Chemical Industries, Ltd.) was added so that the final concentration became 10 ng/ml. Under the same conditions, the culturing was carried out for further 20 hours, whereupon the culture supernatant was collected and subjected to cool centrifugation at 4° C. for 5 minutes (cool centrifugal separator, manufactured by Hitachi) to remove cell fragments.
The pH of a conditioned medium (50 ml) containing MMP-9, thus prepared, was adjusted to 8.0 with 0.2N NaOH. […] Namely, the above-mentioned conditioned medium was passed through DEAE-Sephacel (manufactured by Pharmacia, gel volume: about 35 ml) preliminarily equilibrated with 50 mM Tris-HCl, pH 8.0 (A buffer), and a non-adsorption fraction was collected. Then, it was added to Dye Matrix Gel Green A (manufactured by Amicon Co., gel volume: about 6 ml) preliminarily equilibrated with 50 mM Tris-HCl, pH 7.5/10 MM CaCl2/0.05% Brij 35/0.02% NaN3 (B buffer) and thoroughly washed with the same buffer, whereupon the adsorbed enzyme was eluted with a 1M NaCl-containing B buffer. About 7.5 ml of the eluted fraction was diluted twice with the B buffer and added to Gelatin-Sepharose 4B (manufactured by Pharmacia, gel volume: about 6 ml) preliminarily equilibrated with a 0.5 M NaCl-containing B buffer. It was thoroughly washed with a 0.5M NaCl-containing B buffer, and eluted with the B buffer containing 10% of dimethylsulfoxide (DMSO) and 0.5 M of NaCl. 5.5 ml of the eluted fraction was dialyzed against a 0.1 M NaCl-containing B buffer to obtain 5.2 ml of a purified enzyme solution. The purified MMP-9 standard product was confirmed to have a single band of 92 kDa by a protein staining by SDS electrophoresis, and further, it was confirmed to have an adequate gelatin decomposing activity by gelatinzymography (carried out in accordance with a method by Howard E. W. et al; Journal Biological Chemistry, Vol. 266, 13064-13069, 1991) and to have an adequate substrate decomposing activity by the after-mentioned measurement employing a fluorescent peptide substrate specific to MMP.
The inhibition activity against human MMP-9 was measured by the following method in accordance with the method by C. G. Knight et al (FEBS Letters, Vol, 296, 263-266, 1992) employing a fluorescent peptide substrate (7-methoxycoumarin-4-yl)Acetyl-Pro-Leu-Gly-Leu-(3-[2,4-dinitrophenyl]—Ala—Arg-NH2, Code 3163-VC, manufactured by Peptide Institute, Inc.
Further, as the case requires, commercially available human MMP-9 purified enzyme (No. YU-18003, manufactured by Kabushiki Kaisha Yagai Chuo Kenkyusho; used in a final concentration of from 0.0125 to 0.025 unit/ml, No. CC079, manufactured by Chemicon International, Inc.; used in a final concentration of 0.2 μg/ml) was used for the tests. […]

[2] = compounds of the formula (I), 1st measurement, read-out: MMP-9 inhibition activities IC50, 1st
[3] = compounds of the formula (I), 2nd measurement, read-out: MMP-9 inhibition activities IC50, 2nd
[4] = compounds of the formula (I), average of 1st and 2nd (or single measurement), read-out: MMP-9 inhibition activities IC50, Average
[5] = intermediates, compounds of the formula (IV), 1st measurement, read-out: MMP-9 inhibition activities IC50, 1st
[6] = intermediates, compounds of the formula (IV), 2nd measurement, read-out: MMP-9 inhibition activities IC50, 2nd
[7] = intermediates, compounds of the formula (IV), average of 1st and 2nd (or single measurement), read-out: MMP-9 inhibition activities IC50, Average

T1 sequence (P14780 107-707 limits assumed): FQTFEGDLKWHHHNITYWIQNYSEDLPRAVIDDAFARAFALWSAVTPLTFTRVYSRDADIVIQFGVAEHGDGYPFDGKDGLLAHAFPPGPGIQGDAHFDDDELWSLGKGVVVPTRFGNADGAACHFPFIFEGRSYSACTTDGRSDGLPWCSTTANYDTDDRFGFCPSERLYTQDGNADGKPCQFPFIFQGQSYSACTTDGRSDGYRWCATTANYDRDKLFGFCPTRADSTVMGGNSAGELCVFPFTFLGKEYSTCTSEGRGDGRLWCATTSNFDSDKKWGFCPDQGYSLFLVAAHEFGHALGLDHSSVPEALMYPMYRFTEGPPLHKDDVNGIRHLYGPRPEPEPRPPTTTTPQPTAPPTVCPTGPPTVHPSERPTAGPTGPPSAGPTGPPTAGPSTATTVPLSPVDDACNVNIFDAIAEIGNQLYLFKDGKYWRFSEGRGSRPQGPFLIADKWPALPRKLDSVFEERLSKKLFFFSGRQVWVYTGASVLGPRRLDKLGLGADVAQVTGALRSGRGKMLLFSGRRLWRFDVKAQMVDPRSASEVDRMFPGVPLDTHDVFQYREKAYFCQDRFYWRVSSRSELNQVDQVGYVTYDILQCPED

| SMILES | IC50 [1, 2] | IC50 [1, 3] | IC50 [1, 4] | melting point | IC50 [1, 5] | IC50 [1, 6] | IC50 [1, 7] |
| --- | --- | --- | --- | --- | --- | --- | --- |
| CCCCOc1cc(C(F)(F)F)cc(NNC(=C[N+](=O)[O-])NC)n1 [compound 177] | 10.7 µM | 6.1 µM | 8.4 µM | 169 °C (dec.) |  |  |  |
| CNC(=C[N+](=O)[O-])NN=Cc1ccc2c(c1)OCO2 [compound 140] | 22.3 µM | 21.9 µM | 22.6 µM | 180 °C (dec.) |  |  |  |
| CNC(=C[N+](=O)[O-])NNc1cc(C(F)(F)F)cc(OCC2CC2)n1 [compound 184] | 20 µM | 10.6 µM | 15.3 µM | 167 °C (dec.) |  |  |  |
| CNC(=C[N+](=O)[O-])NNc1ccc2ccccc2n1 [compound 127] | 1.4 µM | 2.8 µM | 2.1 µM | 202 °C (dec.) |  |  |  |
| CC(=C(NNc1cc(C(F)(F)F)cc(Cl)n1)NS(C)(=O)=O)[N+](=O)[O-] [compound 165] | 3.2 µM |  | 3.2 µM | 30 to 33 °C |  |  |  |
| CNC(=C[N+](=O)[O-])NN=C(C)OC [compound 26] | 31.9 µM | 31.5 µM | 31.7 µM | 159 °C (dec.) |  |  |  |
| CNC(=C[N+](=O)[O-])NN=Cc1cccc(C(F)(F)F)c1 [compound 167] | 14 µM |  | 14 µM | 180 °C |  |  |  |
| NNC(=C[N+](=O)[O-])Nc1ccccc1 [compound 87] | 20.5 µM | 25.3 µM | 22.9 µM | 153 °C (dec.) |  |  |  |
| CNC(=C[N+](=O)[O-])NN=Cc1ccc([N+](=O)[O-])cc1 [compound 138] | 22.3 µM | 15.7 µM | 19 µM | 232 °C (dec.) |  |  |  |
| CNC(=C[N+](=O)[O-])NNc1cc(C(F)(F)F)cc(OCCSC)n1 [compound 189] | 11.1 µM |  | 11.1 µM | 94 °C |  |  |  |
| CNC(=C[N+](=O)[O-])NN(C)c1ncc(C(F)(F)F)cc1Cl [Compound No. 35, N-methyl-1-(2-methyl-2-(3-chloro-5-trifluoromethyl-2-pyridyl)hydrazino)-2-nitroetheneamine] | 14.6 µM | 22.1 µM | 18.4 µM |  |  |  |  |
| COc1cccc(NC(=C[N+](=O)[O-])SC)c1 [Intermediate 20] |  |  |  | 118 to 121 °C | 38.9 µM | 49.6 µM | 44.3 µM |
| CNC(=C[N+](=O)[O-])NN=Cc1ccc2c(c1)OCCO2 [compound 141] | 19.9 µM | 18.1 µM | 19 µM | 179 °C (dec.) |  |  |  |
| CNC(=C[N+](=O)[O-])NN=C(C)c1ccncc1 [compound 38] | 13.7 µM | 19.1 µM | 16.4 µM | 199 °C (dec.) |  |  |  |
| CSC(=C[N+](=O)[O-])NS(=O)(=O)c1ccc(-c2ccccc2)cc1 [Intermediate 62] |  |  |  | 75 to 77 °C | 4.5 µM |  | 4.5 µM |
| CNC(=C[N+](=O)[O-])NNc1cccc(Cl)c1 [Compound No. 9] | 42.2 µM | 43.9 µM | 43.1 µM | 191 °C (dec.) |  |  |  |
| O=[N+]([O-])C=C(NCC1CCCO1)NNc1cc(C(F)(F)F)cc(Cl)n1 (stereo not shown) [compound 169] | 6 µM | 9.6 µM | 7.8 µM | 164 °C (dec.) |  |  |  |
| CCOC(=O)c1ccc(NC(=C[N+](=O)[O-])SC)cc1 [Intermediate 50] |  |  |  | 116 to 123 °C | 33.9 µM | 25.3 µM | 29.6 µM |
| O=[N+]([O-])C=C(NNc1cc(C(F)(F)F)cc(Cl)n1)NS(=O)(=O)c1ccc(-c2ccccc2)cc1 [compound 162] | 6.3 µM |  | 6.3 µM | 171 to 174 °C |  |  |  |
| CSC(=C[N+](=O)[O-])NS(C)(=O)=O [Intermediate 57, N-(1-(methylthio)-2-nitroethenyl)methanesulfonamide] |  |  |  |  | 49.4 µM | 37.5 µM | 43.5 µM |
